Data published in patent EP0253314B1, “Peptidase and process for producing the same” (SUNTORY LIMITED, priority 1986, dated 1988).
Non-standard residues stand in square brackets, D forms with d. Residues, ends and D or L forms follow the SMILES beside them. *: point of attachment. Sta = CC(C)C[C@H](N)[C@@H](O)CC(=O)O; Isovaleryl = CC(C)CC(=O)*

Tests used:
[1] = test system: peptidase of the present invention; format: biochemical, Saccharomyces cerevisiae; set-up: key to Inhibition: - indicates that the reaction was not inhibited; conditions: for Inhibition: pH 4
[2] = test system: enzyme of the present invention; experiment: Substrate specificity of enzyme (percentage of cleaved substrate by HPLC); format: biochemical, Saccharomyces cerevisiae; conditions: 24 hours at 30°C in 0.05 M acetate buffer (pH 4.0); DEAE-Sephacel fraction eluted with 0.2 M NaCl
α-MF = α-MF produced at a level of several µg/ml; reacted for 24 hours; prior-art culture activity; cited from earlier work

| Molecule | Response to inhibitor (inhibition of the enzyme, in words) [1] | Inhibition [1] | % Cleavage [2] | α-MF cleaved (α-MF) |
| --- | --- | --- | --- | --- |
| O=C(O)CN(CCN(CC(=O)O)CC(=O)O)CC(=O)O [EDTA] | not inhibited | - |  |  |
| CC(=O)N[C@@H](CC(C)C)C(=O)N[C@@H](CC(C)C)C(=O)N[C@H](C=O)CCCNC(=N)N [Leupeptin, leupeptin] | inhibited neither | - |  |  |
| O=C(O)c1cc[c]([Hg][Cl])cc1 [PCMB, p-chloro-mercuribenzoic acid] | inhibited neither | - |  |  |
| O=S(=O)(F)Cc1ccccc1 [PMSF, phenylmethylsulfonyl fluoride] | inhibited neither | - |  |  |
| CC(C)CC(=O)N[C@H](C(=O)N[C@H](C(=O)N[C@@H](CC(C)C)[C@@H](O)CC(=O)N[C@@H](C)C(=O)N[C@@H](CC(C)C)[C@@H](O)CC(=O)O)C(C)C)C(C)C [Pepstatin, pepstatin] (Isovaleryl-VV[Sta]A[Sta]-OH) | not inhibited | - |  |  |
| Cc1ccc(S(=O)(=O)N[C@@H](CCCCN)C(=O)CCl)cc1 [TLCK, tosyl - L - lysine chloromethyl ketone] | inhibited neither | - |  |  |
| O=C(O)CI [monoiodoacetic acid] | inhibited neither | -* |  |  |
| C[C@@H](O)[C@H](N)C(=O)N[C@@H](CCCCN)C(=O)N1CCC[C@H]1C(=O)N[C@@H](CCCNC(=N)N)C(=O)O [tuftsin, Thr - Lys - Pro - Arg] (H-TKPR-OH) |  |  | 0% |  |
| Cys - Tyr - Ile - Gln - Asn - Cys - Pro - Leu - Gly - NH2 [oxytocin] |  |  | 0% |  |
| Ser - Glu - Glu - Pro - Pro - Ile - Ser - Leu - Asp - Leu - Thr - Phe - His - Leu - Leu - Arg - Glu - Val - Leu - Glu - Met - Ala - Arg - Ala - Glu - Gln - Leu - Ala - Gln - Gln - Ala - His - Ser - Asn - Arg - Lys - Leu - Met - Glu - Ile - Ile - NH2 [CRF] |  |  | 0% |  |
| Ser - Leu - Arg - Arg - Ser - Ser - Cys - Phe - Gly - Gly - Arg - Met - Asp - Arg - Ile - Gly - Ala - Gln - Ser - Gly - Leu - Gly - Cys - Asn - Ser - Phe - Arg - Tyr [α-hamp] |  |  | 0% |  |
| Trp - Gly - Gly - Phe - Leu - Arg - Arg - Ile - Arg - Pro - Lys - Leu - Lys - Trp - Asp - Asn - Gln [dynorphin] |  |  | not less than 90% |  |
| Trp - His - Trp - Leu - Gln - Leu - Lys - Pro - Gly - Gln - Pro - Met - Tyr [α-MF] |  |  | not less than 90% | about 50% |
| Tyr - Gly - Gly - Phe - Met - Thr - Ser - Glu - Lys - Ser - Gln - Thr - Pro - Leu - Val - Thr - Leu [β-endorphin] |  |  | 0% |  |
| pGlu - Leu - Tyr - Glu - Asn - Lys - Pro - Arg - Arg - Pro - Tyr - Ile - Leu [neurotensin] |  |  | 0% |  |
